The source of these data is patent US7276603B2, “Benzofuranyl-and benzothienyl-piperazinyl quinolines and methods of their use” (Wyeth, priority 2003, dated 2007).

By Ki is commonly meant a dissociation constant, usually derived from enzyme kinetics or from competition with a known ligand.

The structures appear in SMILES notation.

Assay [1] has as its target T1, human 5-HT1A receptors (Homo sapiens, UniProt P08908).
T1 construct: expressed in transfected cells; host or cells: CHO cells
T1 sequence (P08908 1-422): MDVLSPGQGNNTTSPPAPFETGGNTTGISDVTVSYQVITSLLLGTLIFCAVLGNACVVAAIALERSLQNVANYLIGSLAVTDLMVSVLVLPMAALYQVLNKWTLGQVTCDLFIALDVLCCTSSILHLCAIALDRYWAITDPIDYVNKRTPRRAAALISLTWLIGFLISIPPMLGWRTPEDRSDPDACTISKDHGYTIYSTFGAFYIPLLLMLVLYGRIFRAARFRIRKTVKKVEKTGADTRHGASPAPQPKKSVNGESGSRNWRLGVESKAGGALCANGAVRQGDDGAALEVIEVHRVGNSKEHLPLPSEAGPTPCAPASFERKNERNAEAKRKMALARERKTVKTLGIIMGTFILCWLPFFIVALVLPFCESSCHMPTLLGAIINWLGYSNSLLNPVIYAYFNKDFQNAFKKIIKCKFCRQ
Nature of the assay: displacement of [3H] 8-OH-DPAT from the 5-HT1A serotonin receptor. Format: binding. The settings on record: CHO cells stably transfected with human 5-HT1A receptors. (In a radioligand displacement assay an active substance lowers the binding of a labelled ligand.)

Assay [2] concerns the target 5-HT transporter (Rattus norvegicus, UniProt P31652). Description: Rat Brain 3H-Paroxetine Binding Assay (RB 5HT Transporter). The settings on record: rat frontal cortical membranes; 3H-paroxetine 0.1 nM, 60 min, 25° C. From the text:
Rat Brain ^3H-Paroxetine Binding Assay (RB 5HT Transporter):
This assay was used to determine a compound's affinity of the 5-HT transporter.
All reactions were terminated by the addition of ice cold Tris buffer followed by rapid filtration using a Tom Tech filtration device to separate bound from free ^3H-paroxetine.

Sequence of 5-HT transporter (P31652 whole entry): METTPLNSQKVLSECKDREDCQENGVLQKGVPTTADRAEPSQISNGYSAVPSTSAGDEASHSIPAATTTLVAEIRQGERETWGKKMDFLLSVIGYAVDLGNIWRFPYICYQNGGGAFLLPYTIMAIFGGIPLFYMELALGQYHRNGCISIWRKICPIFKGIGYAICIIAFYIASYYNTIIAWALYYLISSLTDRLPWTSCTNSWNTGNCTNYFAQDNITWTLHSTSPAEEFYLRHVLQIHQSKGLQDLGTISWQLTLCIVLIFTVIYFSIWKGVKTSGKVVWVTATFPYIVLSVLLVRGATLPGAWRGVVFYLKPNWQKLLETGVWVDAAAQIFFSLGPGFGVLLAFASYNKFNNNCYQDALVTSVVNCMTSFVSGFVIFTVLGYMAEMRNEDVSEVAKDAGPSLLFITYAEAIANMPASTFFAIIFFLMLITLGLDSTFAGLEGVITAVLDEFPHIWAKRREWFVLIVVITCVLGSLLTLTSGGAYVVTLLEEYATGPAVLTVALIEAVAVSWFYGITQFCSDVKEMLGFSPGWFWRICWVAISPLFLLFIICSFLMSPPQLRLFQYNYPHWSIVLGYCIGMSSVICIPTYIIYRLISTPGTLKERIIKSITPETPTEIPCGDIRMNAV

On to `COc1cc(N2CCN([C@H]3CC[C@H](c4csc5ccc(F)cc54)CC3)CC2)c2ncccc2c1` [Compound 50, 6-methoxy-8-{4-[4-trans(5-fluoro-1-benzothien-3-yl)cyclohexyl]piperazin-1-yl}quinoline], for which the Ki in assay [1] worked out at 25.9 nM; in assay [2], 10 nM.

In assay [1], `COc1cccc2c(CC(C)N3CCN(c4cccc5cccnc45)CC3)coc12` (stereo not drawn) [Compound 35, 8-{4-[2-(7-methoxy-1-benzofuran-3-yl)-1-methylethyl)piperazin-1-yl]quinoline] returned a Ki of 1.22 nM. In other words, the single-digit nanomolar range.

As for `Cc1cc(N2CCN(CCc3coc4ccccc34)CC2)c2ncccc2c1` [Compound 3, 8-{4-[2-(1-benzofuran-3-yl)ethyl]-1-piperazinyl}-6-methylquinoline], the Ki in assay [1] is 1.93 nM; in assay [2], 14 nM.

In the case of `Fc1cc(N2CCN(CCc3coc4ccc(F)cc34)CC2)c2ncccc2c1` [Compound 17, 8-{4-[2-(5-fluoro-1-benzofuran-3-yl)ethyl]-1-piperazinyl}-6-fluoro-quinoline], the values for the Ki in assay [1] and in assay [2] were 1.59 nM and 16.5 nM, respectively.

For `Cc1cc(N2CCN(CC(C)c3coc4ccccc34)CC2)c2ncccc2c1` (stereo not drawn) [Compound 30, 8-{4-[2-(1-benzofuran-3-yl)propyl]-1-piperazinyl}-6-methyl-quinoline], the Ki was 79.1 nM in assay [1] and 93 nM in assay [2].

Turning to `CC(CN1CCN(c2cc(Cl)cc3cccnc23)CC1)c1coc2ccccc12` (stereo not drawn) [Compound 28, 8-{4-[2-(1-benzofuran-3-yl)propyl]-1-piperazinyl}-6-chloro-quinoline], the Ki in assay [1] turned out to be 110 nM; in assay [2], 73 nM.

For `COc1cc(N2CCN(CCc3coc4ccc(OC)cc34)CC2)c2ncccc2c1` [Compound 25, 8-{4-[2-(5-methoxy-1-benzofuran-3-yl)ethyl]-1-piperazinyl}-6-methoxy-quinoline], the Ki turned out to be 8.71 nM in assay [1] and 47 nM in assay [2].

Regarding `COc1cc(N2CCN(CCc3coc4ccc(F)cc34)CC2)c2ncccc2c1` [Compound 16, 8-{4-[2-(5-fluoro-1-benzofuran-3-yl)ethyl]-1-piperazinyl}-6-methoxy-quinoline], the Ki in assay [1] was determined as 8.05 nM; in assay [2] it was 62 nM.

Regarding `COc1cc(N2CCN(CCc3coc4ccccc34)CC2)c2ncccc2c1` [Compound 4, 8-{4-[2-(1-benzofuran-3-yl)ethyl]-1-piperazinyl}-6-methoxyquinoline], the Ki in assay [1] was 2.48 nM; in assay [2] it was 60 nM.

With `COc1cccc2c(C(C)CN3CCN(c4cc(C)cc5cccnc45)CC3)coc12` (stereo not drawn) [Compound 34, 8-{4-[2-(7-methoxy-1-benzofuran-3-yl)propyl]-1-piperazinyl}-6-methyl-quinoline], the results for the Ki in assay [1] and in assay [2] were 9.13 nM and 35 nM, respectively.

In the case of `COc1ccc2c(CCN3CCN(c4cc(C)cc5cccnc45)CC3)coc2c1` [Compound 10, 8-{4-[2-(6-methoxy-1-benzofuran-3-yl)ethyl]-1-piperazinyl}-6-methyl-quinoline], the Ki in assay [1] turned out to be 0.94 nM; in assay [2] it was 97 nM.

Regarding `COc1ccc2occ([C@H]3CC[C@@H](N4CCN(c5ccc(Cl)c6cccnc56)CC4)CC3)c2c1` [Compound 65, 5-chloro-8-{4-[4-cis(5-methoxy-1-benzofuran-3-yl)cyclohexyl]piperazin-1-yl}quinoline], the Ki amounted to 10.1 nM in assay [1] and 53 nM in assay [2].

With `Cc1cc(N2CCN(CCc3coc4ccc(Cl)cc34)CC2)c2ncccc2c1` [Compound 14, 8-{4-[2-(5-chloro-1-benzofuran-3-yl)ethyl]-1-piperazinyl}-6-methyl-quinoline], the Ki stood at 13.5 nM in assay [1] and 45 nM in assay [2].

As for `COc1ccc2occ([C@H]3CC[C@H](N4CCN(c5ccc(Cl)c6cccnc56)CC4)CC3)c2c1` [Compound 66, 5-chloro-8-{4-[4-trans(5-methoxy-1-benzofuran-3-yl)cyclohexyl]piperazin-1-yl}quinoline], the Ki in assay [1] came to 1.99 nM; in assay [2], 89 nM.

In the case of `COc1ccc2occ(CC(C)N3CCN(c4cc(C)cc5cccnc45)CC3)c2c1` (stereo not drawn) [Compound 40, 6-methyl-8-{4-[2-(5-methoxy-1-benzofuran-3-yl)-1-methylethyl)piperazin-1-yl]quinoline], the Ki in assay [1] was 1.77 nM; in assay [2], 130 nM.

Take `Clc1cc(N2CCN(CCc3coc4ccccc34)CC2)c2ncccc2c1` [Compound 2, 8-{4-[2-(1-benzofuran-3-yl)ethyl]-1-piperazinyl}-6-chloroquinoline]: the Ki in assay [1] came to 124 nM; in assay [2] it was 176 nM.

`COc1cccc2c(C(C)CN3CCN(c4cc(C)cc5cccnc45)CC3)coc12` (stereo not drawn) [Compound 32, 8-{4-[2-(7-methoxy-1-benzofuran-3-yl)propyl]-1-piperazinyl}-6-methyl-quinoline]: the Ki stood at 2.16 nM in assay [1] and 35 nM in assay [2].

As to `CC(CN1CCN(c2cccc3cccnc23)CC1)c1coc2ccccc12` (stereo not drawn) [Compound 27, 8-{4-[2-(1-benzofuran-3-yl)propyl]-1-piperazinyl}quinoline], the Ki came to 19.3 nM in assay [1] and 32 nM in assay [2].

Regarding `Fc1cc(N2CCN(CCc3coc4cc(Cl)ccc34)CC2)c2ncccc2c1` [Compound 6, 8-{4-[2-(6-chloro-1-benzofuran-3-yl)ethyl]-1-piperazinyl}-6-fluoro-quinoline], the Ki came out at 16.1 nM in assay [1] and 471 nM in assay [2].

In the case of `COc1cccc2c(CCN3CCN(c4cccc5cccnc45)CC3)coc12` [Compound 18, 8-{4-[2-(7-methoxy-1-benzofuran-3-yl)ethyl]-1-piperazinyl}-quinoline], the Ki in assay [1] is 0.11 nM; in assay [2], 0.65 nM.

On to `COc1ccc2c(CCN3CCN(c4cc(Cl)cc5cccnc45)CC3)coc2c1` [Compound 11, 8-{4-[2-(6-methoxy-1-benzofuran-3-yl)ethyl]-1-piperazinyl}-6-chloro-quinoline], for which the Ki was 0.81 nM in assay [1] and 37 nM in assay [2].

For the compound `COc1cccc2c1occ2[C@H]1CC[C@@H](N2CCN(c3ccc(Cl)c4cccnc34)CC2)CC1` [Compound 63, 5-chloro-8-{4-[4-cis(7-methoxy-1-benzofuran-3-yl)cyclohexyl]piperazin-1-yl}quinoline], the Ki in assay [1] worked out at 0.92 nM; in assay [2] it was 87 nM.

`COc1cccc2c(CC(C)N3CCN(c4cc(C)cc5cccnc45)CC3)coc12` (stereo not drawn) [Compound 37, 6-methyl-8-{4-[2-(7-methoxy-1-benzofuran-3-yl)-1-methylethyl)piperazin-1-yl]quinoline]: in assay [2], the affinity corresponds to a Ki of 471 nM.

Take `COc1cc(N2CCN(C(C)Cc3coc4c(OC)cccc34)CC2)c2ncccc2c1` (stereo not drawn) [Compound 36, 6-methoxy-8-{4-[2-(7-methoxy-1-benzofuran-3-yl)-1-methylethyl)piperazin-1-yl]quinoline]: the Ki in assay [1] amounted to 0.23 nM; in assay [2], 4.16 nM.

Take `COc1ccc2c(CCN3CCN(c4cccc5cccnc45)CC3)coc2c1` [Compound 9, 8-{4-[2-(6-methoxy-1-benzofuran-3-yl)ethyl]-1-piperazinyl}-quinoline]: the Ki is 0.37 nM in assay [1] and 33 nM in assay [2].

Take `Fc1ccc2occ(CCN3CCN(c4cccc5cccnc45)CC3)c2c1` [Compound 15, 8-{4-[2-(5-fluoro-1-benzofuran-3-yl)ethyl]-1-piperazinyl}-quinoline]: the Ki in assay [1] is 0.37 nM; in assay [2], 17 nM.

Take `Clc1ccc2occ(CCN3CCN(c4cccc5cccnc45)CC3)c2c1` [Compound 12, 8-{4-[2-(5-chloro-1-benzofuran-3-yl)ethyl]-1-piperazinyl}-quinoline]: the results for the Ki in assay [1] and in assay [2] were 2.92 nM and 11 nM, respectively.

Regarding `COc1ccc2occ(CC(C)N3CCN(c4cc(Cl)cc5cccnc45)CC3)c2c1` (stereo not drawn) [Compound 39, 6-chloro-8-{4-[2-(5-methoxy-1-benzofuran-3-yl)-1-methylethyl)piperazin-1-yl]quinoline], the Ki in assay [1] was determined as 0.34 nM; in assay [2], 5.5 nM.

On to `COc1cccc2c(CCN3CCN(c4cc(Cl)cc5cccnc45)CC3)coc12` [Compound 20, 8-{4-[2-(7-methoxy-1-benzofuran-3-yl)ethyl]-1-piperazinyl}-6-chloro-quinoline], for which the figures for the Ki in assay [1] and in assay [2] were 0.14 nM and 3.79 nM, respectively.

Compound `Fc1cc(N2CCN([C@H]3CC[C@@H](c4csc5ccc(F)cc54)CC3)CC2)c2ncccc2c1` [Compound 47, 6-fluoro-8-{4-[4-cis(5-fluoro-1-benzothien-3-yl)cyclohexyl]piperazin-1-yl}quinoline] returned a Ki in assay [1] of 1.72 nM.

The compound `Clc1cc(N2CCN(CCc3coc4cc(Cl)ccc34)CC2)c2ncccc2c1` [Compound 7, 8-{4-[2-(6-chloro-1-benzofuran-3-yl)ethyl]-1-piperazinyl}-6-chloro-quinoline] returned a Ki in assay [1] of 15.4 nM.

For the compound `Fc1cc(N2CCN(CCc3coc4ccccc34)CC2)c2ncccc2c1` [Compound 1, 8-{4-[2-(1-benzofuran-3-yl)ethyl]-1-piperazinyl}-6-fluoroquinoline], the Ki in assay [2] was found to be 6.5 nM.

As for `COc1ccc2occ(CC(C)N3CCN(c4cccc5cccnc45)CC3)c2c1` (stereo not drawn) [Compound 38, 8-{4-[2-(5-methoxy-1-benzofuran-3-yl)-1-methylethyl)piperazin-1-yl]quinoline], the affinity in assay [1], expressed as Ki, was 0.14 nM.
